Experimental data taken from patent publication US20220306585A1, “PYRAZOLE DERIVATIVES FOR CONTROLLING ARTHROPODS” (Bayer Animal Health GmbH, priority 2019, published 2022).

Experiment: Degradation of prodrugs and release of parent drug in rat plasma
Type: in vitro ADME
Conditions: male, Hannover-Janvier RjHan, rat plasma (Li-heparin), 37° C., percent area of prodrug at t0
Summary of the method: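 Prodrug spiked into male Hannover rat Li-heparin plasma at 37 °C. Samples at 0.17–4 h quenched in acetonitrile/citric acid pH 3, then analysed by HPLC, with HPLC-MS at final time point. Prodrug loss and parent drug appearance given as percent area of prodrug at t0.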

N#CC1(N(COC(=O)/C=C/C(=O)O)C(=O)c2cc(-c3cnn(-c4c(Cl)cc(C(F)(C(F)(F)F)C(F)(F)F)cc4OC(F)(F)F)c3)ccc2Cl)CC1 [Example 13, (2E)-4-{[(2-Chloro-5-{1-[2-chloro-4-(1,1,1,2,3,3,3-heptafluoropropan-2-yl)-6-(trifluoromethoxy)phenyl]-1H-pyrazol-4-yl}benzoyl)(1-cyanocyclopropyl)amino]methoxy}-4-oxobut-2-enoic acid]
recovery at 0.17 h, 39 µg/mL (0.17 h): 96%
recovery at 0.5 h, 39 µg/mL (0.5 h): 85%
recovery at 1 h, 39 µg/mL (1 h): 63%
recovery at 1.5 h, 39 µg/mL (1.5 h): 49%
recovery at 2 h, 39 µg/mL (2 h): 35%
recovery at 4 h, 39 µg/mL (4 h): 14%
